tested on: PBMCs infected with VSV-G pseudotyped HIV virus (VSV-G/pNLGI-P2A-ΔEnv); test: cells; assay type: cell-based; details: Homo sapiens, PBMC, read-out: TACK EC50 (nM)

In order of falling EC50:
1. Nc1nccc(Cc2cc3c(cc2Cl)[C@@](C#CC2CC2)(C(F)(F)F)OC(=O)N3)n1 [Example 38, (S)-7-((2-aminopyrimidin-4-yl)methyl)-6-chloro-4-(cyclopropylethynyl)-4-(trifluoromethyl)-1,4-dihydro-2H-benzo[d][1,3]oxazin-2-one]  149 nM
2. Cc1cc(=O)n(Cc2cc3c(cc2Cl)[C@@](C#CC2CC2)(C(F)(F)F)OC(=O)N3)cn1 [Example 17, (S)-6-chloro-4-(cyclopropylethynyl)-7-((4-methyl-6-oxopyrimidin-1(6H)-yl)methyl)-4-(trifluoromethyl)-1,4-dihydro-2H-benzo[d][1,3]oxazin-2-one]  92 nM
3. Nc1nccc(Cc2cc3c(cc2F)[C@@](C#CC2CC2)(C(F)(F)F)OC(=O)N3)n1 (single isomer, unassigned) [Example 31A]  91 nM
4. CC(F)(F)[C@@]1(C#CC2CC2)OC(=O)Nc2cc(Cc3ccnc(N)c3C#N)c(Cl)cc21 [Example 34, (S)-2-amino-4-((6-chloro-4-(cyclopropylethynyl)-4-(1,1-difluoroethyl)-2-oxo-1,4-dihydro-2H-benzo[d][1,3]oxazin-7-yl)methyl)nicotinonitrile]  76 nM
5. COCc1cc(=O)n(Cc2ccc3c(c2)NC(=O)O[C@]3(C#CC2CC2)C(C)(F)F)cn1 [Example 12, (S)-4-(cyclopropylethynyl)-4-(1,1-difluoroethyl)-7-((4-(methoxymethyl)-6-oxopyrimidin-1(6H)-yl)methyl)-1,4-dihydro-2H-benzo[d][1,3]oxazin-2-one]  68 nM
6. CC(F)(F)[C@@]1(C#CC2CC2)OC(=O)Nc2cc(Cc3ccnc(N)n3)c(Cl)cc21 [Example 40, (S)-7-((2-aminopyrimidin-4-yl)methyl)-6-chloro-4-(cyclopropylethynyl)-4-(1,1-difluoroethyl)-1,4-dihydro-2H-benzo[d][1,3]oxazin-2-one]  65 nM
7. O=C1Nc2cc(Cn3cnccc3=O)c(Cl)cc2[C@@](C#CC2CC2)(C(F)(F)F)O1 [Example 15, (S)-6-chloro-4-(cyclopropylethynyl)-7-((6-oxopyrimidin-1(6H)-yl)methyl)-4-(trifluoromethyl)-1,4-dihydro-2H-benzo[d][1,3]oxazin-2-one]  63 nM
8. Nc1nccn(Cc2cc3c(cc2F)[C@@](C#CC2CC2)(C(F)(F)F)OC(=O)N3)c1=O (single isomer, unassigned) [Example 1A]  39 nM
9. CC(F)(F)[C@@]1(C#CC2CC2)OC(=O)Nc2cc(Cc3ccnc(N)c3C#N)ccc21 [Example 35, (S)-2-amino-4-((4-(cyclopropylethynyl)-4-(1,1-difluoroethyl)-2-oxo-1,4-dihydro-2H-benzo[d][1,3]oxazin-7-yl)methyl)nicotinonitrile]  20 nM
10. COCc1cc(=O)n(Cc2cc3c(cc2F)[C@@](C#CC2CC2)(C(C)(F)F)OC(=O)N3)cn1 [Example 23, (S)-4-(cyclopropylethynyl)-4-(1,1-difluoroethyl)-6-fluoro-7-((4-(methoxymethyl)-6-oxopyrimidin-1(6H)-yl)methyl)-1,4-dihydro-2H-benzo[d][1,3]oxazin-2-one]  16 nM
11. Cc1cc(=O)n(Cc2cc3c(cc2Cl)[C@@](C#CC2CC2)(C(C)(F)F)OC(=O)N3)cn1 [Example 28, (S)-6-chloro-4-(cyclopropylethynyl)-4-(1,1-difluoroethyl)-7-((4-methyl-6-oxopyrimidin-1(6H)-yl)methyl)-1,4-dihydro-2H-benzo[d][1,3]oxazin-2-one]  15 nM
12. CC(F)(F)[C@@]1(C#CC2CC2)OC(=O)Nc2cc(Cn3cnccc3=O)c(F)cc21 [Example 22, (S)-4-(cyclopropylethynyl)-4-(1,1-difluoroethyl)-6-fluoro-7-((6-oxopyrimidin-1(6H)-yl)methyl)-1,4-dihydro-2H-benzo[d][1,3]oxazin-2-one]  12 nM
13. CC(F)(F)[C@@]1(C#CC2CC2)OC(=O)Nc2cc(Cn3cncc(N)c3=O)c(F)cc21 [Example 20, (S)-7-((5-amino-6-oxopyrimidin-1(6H)-yl)methyl)-4-(cyclopropylethynyl)-4-(1,1-difluoroethyl)-6-fluoro-1,4-dihydro-2H-benzo[d][1,3]oxazin-2-one]  11 nM
14. COc1cc(=O)n(Cc2cc3c(cc2F)[C@@](C#CC2CC2)(C(C)(F)F)OC(=O)N3)cn1 [Example 24, (S)-4-(cyclopropylethynyl)-4-(1,1-difluoroethyl)-6-fluoro-7-((4-methoxy-6-oxopyrimidin-1(6H)-yl)methyl)-1,4-dihydro-2H-benzo[d][1,3]oxazin-2-one]  9 nM
